Experimental data from ChEMBL document CHEMBL1145498, “A systematic interaction map of validated kinase inhibitors with Ser/Thr kinases” (Proc Natl Acad Sci U S A, 2007).

biological target: 5'-AMP-activated protein kinase catalytic subunit alpha-2 (Homo sapiens) (UniProt P54646)
Sequence (P54646 whole entry, looked up): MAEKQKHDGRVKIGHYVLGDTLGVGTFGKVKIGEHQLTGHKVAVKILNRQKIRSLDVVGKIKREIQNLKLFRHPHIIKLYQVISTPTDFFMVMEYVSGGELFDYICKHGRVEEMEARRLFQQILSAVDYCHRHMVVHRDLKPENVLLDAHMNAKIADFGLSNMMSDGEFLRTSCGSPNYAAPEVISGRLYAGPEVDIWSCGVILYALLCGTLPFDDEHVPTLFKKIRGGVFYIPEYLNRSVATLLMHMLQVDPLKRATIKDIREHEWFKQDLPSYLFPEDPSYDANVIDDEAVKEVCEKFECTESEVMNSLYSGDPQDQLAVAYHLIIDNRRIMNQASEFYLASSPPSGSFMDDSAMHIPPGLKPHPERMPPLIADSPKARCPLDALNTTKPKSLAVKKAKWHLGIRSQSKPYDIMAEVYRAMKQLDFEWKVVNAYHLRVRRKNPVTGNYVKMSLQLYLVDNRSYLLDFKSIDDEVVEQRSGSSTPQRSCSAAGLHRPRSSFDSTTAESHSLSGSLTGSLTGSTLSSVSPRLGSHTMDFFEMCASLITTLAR

Row | Structure (SMILES) | ΔTm [°C]
1 | CC(=O)O/N=C1/C(=C2/C(=O)Nc3cc(Br)ccc32)Nc2ccccc21 [6-BROMOINDIRUBIN-3'-ACETOXIME] | 2
2 | COc1cc(OC)c(/C=C2\C(=O)Nc3ccccc32)c(OC)c1 | -0.1
3 | CCOc1cc2ncnc(Nc3cccc(Br)c3)c2cc1OCC | 0.1

biological target: Calcium/calmodulin-dependent protein kinase kinase 2 (Homo sapiens, UniProt Q96RR4)
Sequence (Q96RR4 2-588 limits assumed): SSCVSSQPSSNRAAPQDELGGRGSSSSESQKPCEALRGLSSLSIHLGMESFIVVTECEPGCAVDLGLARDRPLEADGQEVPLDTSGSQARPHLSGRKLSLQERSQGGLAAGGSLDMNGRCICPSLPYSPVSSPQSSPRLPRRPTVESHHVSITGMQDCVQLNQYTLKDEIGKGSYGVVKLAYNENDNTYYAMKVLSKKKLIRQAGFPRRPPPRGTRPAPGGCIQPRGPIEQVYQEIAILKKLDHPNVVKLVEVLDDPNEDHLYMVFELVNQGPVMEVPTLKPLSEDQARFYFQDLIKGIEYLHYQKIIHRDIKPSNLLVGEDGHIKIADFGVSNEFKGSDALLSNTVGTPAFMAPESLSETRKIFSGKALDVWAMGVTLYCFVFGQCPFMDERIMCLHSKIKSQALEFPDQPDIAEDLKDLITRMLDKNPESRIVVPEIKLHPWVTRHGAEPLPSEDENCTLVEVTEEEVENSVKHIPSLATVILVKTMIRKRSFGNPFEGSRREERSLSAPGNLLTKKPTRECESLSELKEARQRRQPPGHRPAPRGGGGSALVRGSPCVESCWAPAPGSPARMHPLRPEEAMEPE

Row | Structure (SMILES) | ΔTm [°C]
4 | CC(=O)O/N=C1/C(=C2/C(=O)Nc3cc(Br)ccc32)Nc2ccccc21 [6-BROMOINDIRUBIN-3'-ACETOXIME] | -1.7
5 | COc1cc(OC)c(/C=C2\C(=O)Nc3ccccc32)c(OC)c1 | 0.4
6 | CCOc1cc2ncnc(Nc3cccc(Br)c3)c2cc1OCC | 2.7

biological target: Casein kinase I isoform gamma-3 (Homo sapiens) (UniProt Q9Y6M4)
Sequence (Q9Y6M4 whole entry, looked up, canonical isoform): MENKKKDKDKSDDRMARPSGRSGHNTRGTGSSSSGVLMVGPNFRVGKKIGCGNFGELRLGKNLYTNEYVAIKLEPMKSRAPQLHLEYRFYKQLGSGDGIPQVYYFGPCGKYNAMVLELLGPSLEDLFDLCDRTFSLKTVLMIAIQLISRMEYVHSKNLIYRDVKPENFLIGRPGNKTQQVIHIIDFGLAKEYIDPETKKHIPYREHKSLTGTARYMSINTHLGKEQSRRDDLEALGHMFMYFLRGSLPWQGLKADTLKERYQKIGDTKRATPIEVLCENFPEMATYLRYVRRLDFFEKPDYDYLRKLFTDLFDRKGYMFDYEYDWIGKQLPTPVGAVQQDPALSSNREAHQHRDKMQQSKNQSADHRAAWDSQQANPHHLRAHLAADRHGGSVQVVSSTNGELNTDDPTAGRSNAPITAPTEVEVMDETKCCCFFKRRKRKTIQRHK

Row | Structure (SMILES) | ΔTm [°C]
7 | CC(=O)O/N=C1/C(=C2/C(=O)Nc3cc(Br)ccc32)Nc2ccccc21 [6-BROMOINDIRUBIN-3'-ACETOXIME] | 0.5
8 | COc1cc(OC)c(/C=C2\C(=O)Nc3ccccc32)c(OC)c1 | 0.5
9 | CCOc1cc2ncnc(Nc3cccc(Br)c3)c2cc1OCC | -0.2

biological target: Tyrosine-protein kinase JAK1 (Homo sapiens) (UniProt P23458)

Row | Structure (SMILES) | ΔTm [°C]
10 | CC(=O)O/N=C1/C(=C2/C(=O)Nc3cc(Br)ccc32)Nc2ccccc21 [6-BROMOINDIRUBIN-3'-ACETOXIME] | 2.5
11 | COc1cc(OC)c(/C=C2\C(=O)Nc3ccccc32)c(OC)c1 | 0.5
12 | CCOc1cc2ncnc(Nc3cccc(Br)c3)c2cc1OCC | 2.7

biological target: T1, Mitogen-activated protein kinase kinase kinase 5 (Homo sapiens) (UniProt Q99683)
T1 sequence (whole entry): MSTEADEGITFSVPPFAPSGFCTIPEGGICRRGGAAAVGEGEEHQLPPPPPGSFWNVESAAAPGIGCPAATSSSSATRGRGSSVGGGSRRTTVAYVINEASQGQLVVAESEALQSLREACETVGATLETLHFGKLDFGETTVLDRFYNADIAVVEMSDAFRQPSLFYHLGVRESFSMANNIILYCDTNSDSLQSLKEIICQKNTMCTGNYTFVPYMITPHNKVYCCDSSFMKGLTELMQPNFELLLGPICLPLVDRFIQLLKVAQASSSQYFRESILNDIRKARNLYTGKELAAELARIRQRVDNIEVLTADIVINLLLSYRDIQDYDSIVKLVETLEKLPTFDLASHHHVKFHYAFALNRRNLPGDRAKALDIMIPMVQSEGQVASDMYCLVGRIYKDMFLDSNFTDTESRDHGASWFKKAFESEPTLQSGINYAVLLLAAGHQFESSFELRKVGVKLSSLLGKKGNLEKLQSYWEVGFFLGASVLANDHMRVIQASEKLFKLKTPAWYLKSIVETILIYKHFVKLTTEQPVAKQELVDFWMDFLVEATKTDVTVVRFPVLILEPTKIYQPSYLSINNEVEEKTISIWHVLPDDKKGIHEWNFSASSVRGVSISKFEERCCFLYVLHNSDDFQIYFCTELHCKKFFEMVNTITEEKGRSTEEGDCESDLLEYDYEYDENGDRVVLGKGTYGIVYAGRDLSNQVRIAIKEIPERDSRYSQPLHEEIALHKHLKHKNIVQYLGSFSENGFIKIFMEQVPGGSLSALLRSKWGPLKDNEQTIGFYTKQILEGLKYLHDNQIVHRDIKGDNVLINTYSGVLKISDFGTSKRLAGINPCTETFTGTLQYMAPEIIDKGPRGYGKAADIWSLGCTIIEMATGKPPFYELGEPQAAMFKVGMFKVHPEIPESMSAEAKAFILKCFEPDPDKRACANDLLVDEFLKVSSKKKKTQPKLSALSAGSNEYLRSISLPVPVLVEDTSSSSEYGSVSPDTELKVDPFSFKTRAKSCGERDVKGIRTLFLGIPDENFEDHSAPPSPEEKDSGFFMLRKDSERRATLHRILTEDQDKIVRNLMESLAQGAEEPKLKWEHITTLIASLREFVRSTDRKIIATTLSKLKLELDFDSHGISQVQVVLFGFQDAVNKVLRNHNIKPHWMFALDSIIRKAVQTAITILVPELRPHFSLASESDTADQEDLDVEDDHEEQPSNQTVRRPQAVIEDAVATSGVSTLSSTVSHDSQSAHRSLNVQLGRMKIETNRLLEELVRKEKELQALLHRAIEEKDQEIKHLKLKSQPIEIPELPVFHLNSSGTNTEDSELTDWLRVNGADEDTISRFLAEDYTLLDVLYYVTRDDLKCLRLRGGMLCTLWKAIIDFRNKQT

Row | Structure (SMILES) | ΔTm [°C]
13 | CC(=O)O/N=C1/C(=C2/C(=O)Nc3cc(Br)ccc32)Nc2ccccc21 [6-BROMOINDIRUBIN-3'-ACETOXIME] | -0.2
14 | COc1cc(OC)c(/C=C2\C(=O)Nc3ccccc32)c(OC)c1 | 0
15 | CCOc1cc2ncnc(Nc3cccc(Br)c3)c2cc1OCC | 0.6

biological target: Serine/threonine-protein kinase 26 (Homo sapiens) (UniProt Q9P289)
Sequence (Q9P289 2-416 limits assumed): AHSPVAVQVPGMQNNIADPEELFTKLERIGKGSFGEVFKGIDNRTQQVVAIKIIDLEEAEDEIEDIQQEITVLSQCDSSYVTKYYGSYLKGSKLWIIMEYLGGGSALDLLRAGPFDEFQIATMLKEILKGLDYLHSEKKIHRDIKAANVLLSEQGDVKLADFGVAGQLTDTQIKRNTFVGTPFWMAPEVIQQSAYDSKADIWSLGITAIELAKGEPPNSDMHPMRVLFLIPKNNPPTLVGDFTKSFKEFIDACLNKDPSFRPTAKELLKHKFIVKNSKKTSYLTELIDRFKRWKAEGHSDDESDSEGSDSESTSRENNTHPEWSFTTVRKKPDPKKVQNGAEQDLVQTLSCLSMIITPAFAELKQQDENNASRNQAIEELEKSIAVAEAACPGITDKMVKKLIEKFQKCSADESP

Row | Structure (SMILES) | ΔTm [°C]
16 | CC(=O)O/N=C1/C(=C2/C(=O)Nc3cc(Br)ccc32)Nc2ccccc21 [6-BROMOINDIRUBIN-3'-ACETOXIME] | -0.4
17 | COc1cc(OC)c(/C=C2\C(=O)Nc3ccccc32)c(OC)c1 | 0
18 | CCOc1cc2ncnc(Nc3cccc(Br)c3)c2cc1OCC | 1.3

biological target: Serine/threonine-protein kinase Nek6 (Homo sapiens) (UniProt Q9HC98)
Sequence (Q9HC98 whole entry): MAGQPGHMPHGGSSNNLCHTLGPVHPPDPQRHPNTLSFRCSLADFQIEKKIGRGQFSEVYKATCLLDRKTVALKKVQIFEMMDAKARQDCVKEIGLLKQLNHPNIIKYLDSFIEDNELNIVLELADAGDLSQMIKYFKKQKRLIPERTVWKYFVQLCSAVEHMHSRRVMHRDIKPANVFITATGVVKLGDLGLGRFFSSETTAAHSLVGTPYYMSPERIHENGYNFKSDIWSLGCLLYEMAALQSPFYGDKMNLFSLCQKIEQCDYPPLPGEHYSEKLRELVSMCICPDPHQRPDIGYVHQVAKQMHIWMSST

Row | Structure (SMILES) | ΔTm [°C]
19 | CC(=O)O/N=C1/C(=C2/C(=O)Nc3cc(Br)ccc32)Nc2ccccc21 [6-BROMOINDIRUBIN-3'-ACETOXIME] | 0.7
20 | COc1cc(OC)c(/C=C2\C(=O)Nc3ccccc32)c(OC)c1 | 0
21 | CCOc1cc2ncnc(Nc3cccc(Br)c3)c2cc1OCC | 0.7

biological target: Serine/threonine-protein kinase PAK 6 (Homo sapiens) (UniProt Q9NQU5)
Sequence (Q9NQU5 whole entry, looked up): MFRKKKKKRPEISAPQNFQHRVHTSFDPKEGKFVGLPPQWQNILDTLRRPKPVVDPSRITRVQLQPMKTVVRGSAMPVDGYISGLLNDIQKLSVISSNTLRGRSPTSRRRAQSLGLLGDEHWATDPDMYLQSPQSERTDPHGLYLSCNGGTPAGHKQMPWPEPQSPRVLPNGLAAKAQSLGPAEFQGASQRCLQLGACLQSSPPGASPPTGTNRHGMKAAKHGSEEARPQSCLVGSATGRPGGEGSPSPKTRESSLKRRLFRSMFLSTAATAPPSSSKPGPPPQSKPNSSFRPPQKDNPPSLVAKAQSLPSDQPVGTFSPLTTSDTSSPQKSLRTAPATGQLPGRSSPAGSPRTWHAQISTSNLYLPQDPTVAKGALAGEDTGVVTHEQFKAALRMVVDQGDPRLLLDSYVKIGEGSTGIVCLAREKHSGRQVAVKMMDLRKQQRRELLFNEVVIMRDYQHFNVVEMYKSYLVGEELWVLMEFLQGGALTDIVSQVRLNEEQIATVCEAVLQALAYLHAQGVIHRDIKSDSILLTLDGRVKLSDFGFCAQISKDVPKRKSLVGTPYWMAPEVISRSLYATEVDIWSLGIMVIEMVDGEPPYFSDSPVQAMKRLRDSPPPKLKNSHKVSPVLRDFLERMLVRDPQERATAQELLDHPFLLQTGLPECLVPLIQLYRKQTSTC

Row | Structure (SMILES) | ΔTm [°C]
22 | CC(=O)O/N=C1/C(=C2/C(=O)Nc3cc(Br)ccc32)Nc2ccccc21 [6-BROMOINDIRUBIN-3'-ACETOXIME] | 0.3
23 | COc1cc(OC)c(/C=C2\C(=O)Nc3ccccc32)c(OC)c1 | 0
24 | CCOc1cc2ncnc(Nc3cccc(Br)c3)c2cc1OCC | 0.8

biological target: Cyclin-dependent kinase 16 (Homo sapiens) (UniProt Q00536)
Sequence (Q00536 whole entry): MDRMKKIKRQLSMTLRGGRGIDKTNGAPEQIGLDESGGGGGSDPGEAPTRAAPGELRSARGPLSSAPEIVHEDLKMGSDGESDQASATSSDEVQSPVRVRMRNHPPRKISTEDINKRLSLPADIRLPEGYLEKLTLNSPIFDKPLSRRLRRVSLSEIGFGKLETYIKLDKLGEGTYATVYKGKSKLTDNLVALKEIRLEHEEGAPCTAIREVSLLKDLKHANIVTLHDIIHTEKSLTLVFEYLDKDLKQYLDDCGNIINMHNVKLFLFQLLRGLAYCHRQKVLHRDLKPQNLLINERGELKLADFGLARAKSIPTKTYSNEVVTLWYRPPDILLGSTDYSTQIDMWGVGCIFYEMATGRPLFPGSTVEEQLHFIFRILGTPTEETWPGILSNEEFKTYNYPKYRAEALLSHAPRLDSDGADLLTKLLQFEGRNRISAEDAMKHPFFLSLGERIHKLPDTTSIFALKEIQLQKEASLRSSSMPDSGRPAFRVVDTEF

Row | Structure (SMILES) | ΔTm [°C]
25 | CC(=O)O/N=C1/C(=C2/C(=O)Nc3cc(Br)ccc32)Nc2ccccc21 [6-BROMOINDIRUBIN-3'-ACETOXIME] | 2.1
26 | COc1cc(OC)c(/C=C2\C(=O)Nc3ccccc32)c(OC)c1 | -0.7
27 | CCOc1cc2ncnc(Nc3cccc(Br)c3)c2cc1OCC | -1

biological target: Serine/threonine-protein kinase pim-2 (Homo sapiens, UniProt Q9P1W9)

Row | Structure (SMILES) | ΔTm [°C]
28 | CC(=O)O/N=C1/C(=C2/C(=O)Nc3cc(Br)ccc32)Nc2ccccc21 [6-BROMOINDIRUBIN-3'-ACETOXIME] | -1.4
29 | COc1cc(OC)c(/C=C2\C(=O)Nc3ccccc32)c(OC)c1 | 0.5
30 | CCOc1cc2ncnc(Nc3cccc(Br)c3)c2cc1OCC | 1.1

biological target: cAMP-dependent protein kinase catalytic subunit alpha (Homo sapiens) (UniProt P17612)

Row | Structure (SMILES) | ΔTm [°C]
31 | CC(=O)O/N=C1/C(=C2/C(=O)Nc3cc(Br)ccc32)Nc2ccccc21 [6-BROMOINDIRUBIN-3'-ACETOXIME] | 3
32 | COc1cc(OC)c(/C=C2\C(=O)Nc3ccccc32)c(OC)c1 | 0.4
33 | CCOc1cc2ncnc(Nc3cccc(Br)c3)c2cc1OCC | 0.8

biological target: Serine/threonine-protein kinase 10 (Homo sapiens) (UniProt O94804)
Sequence (O94804 whole entry, looked up): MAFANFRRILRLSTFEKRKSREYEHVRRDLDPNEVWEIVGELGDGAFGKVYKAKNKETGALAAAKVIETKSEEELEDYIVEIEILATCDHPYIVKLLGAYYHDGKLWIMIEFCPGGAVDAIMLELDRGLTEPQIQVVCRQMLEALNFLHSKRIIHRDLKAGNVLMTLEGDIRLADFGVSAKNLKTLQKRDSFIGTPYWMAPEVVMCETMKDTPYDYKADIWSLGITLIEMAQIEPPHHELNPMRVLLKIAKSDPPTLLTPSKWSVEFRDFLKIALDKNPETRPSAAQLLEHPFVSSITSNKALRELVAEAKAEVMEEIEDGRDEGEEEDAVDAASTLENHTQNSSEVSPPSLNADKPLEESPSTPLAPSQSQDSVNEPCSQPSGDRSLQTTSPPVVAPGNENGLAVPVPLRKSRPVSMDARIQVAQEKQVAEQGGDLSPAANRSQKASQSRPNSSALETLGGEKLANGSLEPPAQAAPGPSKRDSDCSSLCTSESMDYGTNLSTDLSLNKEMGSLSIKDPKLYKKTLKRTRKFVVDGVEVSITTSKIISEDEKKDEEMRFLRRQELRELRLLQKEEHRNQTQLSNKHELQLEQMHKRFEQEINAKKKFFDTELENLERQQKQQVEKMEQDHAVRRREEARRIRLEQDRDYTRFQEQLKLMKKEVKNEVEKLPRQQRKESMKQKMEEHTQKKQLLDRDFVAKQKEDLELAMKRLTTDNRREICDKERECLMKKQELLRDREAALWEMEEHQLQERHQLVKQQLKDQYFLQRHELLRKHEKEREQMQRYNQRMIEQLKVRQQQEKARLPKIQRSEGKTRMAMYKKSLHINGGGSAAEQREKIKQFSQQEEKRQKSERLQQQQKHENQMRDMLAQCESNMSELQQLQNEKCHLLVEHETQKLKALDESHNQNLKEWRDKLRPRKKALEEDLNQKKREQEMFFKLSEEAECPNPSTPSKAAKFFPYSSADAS

Row | Structure (SMILES) | ΔTm [°C]
34 | CC(=O)O/N=C1/C(=C2/C(=O)Nc3cc(Br)ccc32)Nc2ccccc21 [6-BROMOINDIRUBIN-3'-ACETOXIME] | 0
35 | COc1cc(OC)c(/C=C2\C(=O)Nc3ccccc32)c(OC)c1 | 0.8
36 | CCOc1cc2ncnc(Nc3cccc(Br)c3)c2cc1OCC | 10.3

biological target: T2, Serine/threonine-protein kinase 17A (Homo sapiens) (UniProt Q9UEE5)
T2 sequence (whole entry): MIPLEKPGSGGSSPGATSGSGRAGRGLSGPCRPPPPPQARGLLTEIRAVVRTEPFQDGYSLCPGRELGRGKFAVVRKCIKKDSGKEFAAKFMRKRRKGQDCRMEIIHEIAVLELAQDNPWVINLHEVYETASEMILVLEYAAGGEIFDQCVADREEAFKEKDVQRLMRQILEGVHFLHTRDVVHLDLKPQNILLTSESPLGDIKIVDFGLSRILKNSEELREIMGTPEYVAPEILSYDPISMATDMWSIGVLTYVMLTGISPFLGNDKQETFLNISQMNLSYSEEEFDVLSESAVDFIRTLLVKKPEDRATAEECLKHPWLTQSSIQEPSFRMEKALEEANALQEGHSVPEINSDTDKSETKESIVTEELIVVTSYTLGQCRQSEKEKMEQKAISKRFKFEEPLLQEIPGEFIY

Row | Structure (SMILES) | ΔTm [°C]
37 | CC(=O)O/N=C1/C(=C2/C(=O)Nc3cc(Br)ccc32)Nc2ccccc21 [6-BROMOINDIRUBIN-3'-ACETOXIME] | 3
38 | COc1cc(OC)c(/C=C2\C(=O)Nc3ccccc32)c(OC)c1 | -0.3
39 | CCOc1cc2ncnc(Nc3cccc(Br)c3)c2cc1OCC | 2.9

biological target: Serine/threonine-protein kinase 38 (Homo sapiens) (UniProt Q15208)
Sequence (Q15208 2-465 limits assumed): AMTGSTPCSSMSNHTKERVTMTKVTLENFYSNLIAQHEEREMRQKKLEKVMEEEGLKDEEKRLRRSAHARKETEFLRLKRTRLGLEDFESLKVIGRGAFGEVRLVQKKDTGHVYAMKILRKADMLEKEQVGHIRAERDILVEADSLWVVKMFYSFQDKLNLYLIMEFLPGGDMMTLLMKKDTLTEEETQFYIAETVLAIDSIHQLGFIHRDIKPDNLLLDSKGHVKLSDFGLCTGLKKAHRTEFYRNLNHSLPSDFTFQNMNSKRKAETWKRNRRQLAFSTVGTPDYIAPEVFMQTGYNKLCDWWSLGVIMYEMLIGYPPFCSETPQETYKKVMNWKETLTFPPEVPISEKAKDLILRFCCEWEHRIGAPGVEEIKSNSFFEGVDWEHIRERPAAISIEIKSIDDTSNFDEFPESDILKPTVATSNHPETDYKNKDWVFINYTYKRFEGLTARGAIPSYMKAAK

Row | Structure (SMILES) | ΔTm [°C]
40 | CC(=O)O/N=C1/C(=C2/C(=O)Nc3cc(Br)ccc32)Nc2ccccc21 [6-BROMOINDIRUBIN-3'-ACETOXIME] | 0.9
41 | COc1cc(OC)c(/C=C2\C(=O)Nc3ccccc32)c(OC)c1 | 0.2
42 | CCOc1cc2ncnc(Nc3cccc(Br)c3)c2cc1OCC | 0.7

biological target: T3, Serine/threonine-protein kinase VRK3 (Homo sapiens) (UniProt Q8IV63)
T3 sequence (whole entry): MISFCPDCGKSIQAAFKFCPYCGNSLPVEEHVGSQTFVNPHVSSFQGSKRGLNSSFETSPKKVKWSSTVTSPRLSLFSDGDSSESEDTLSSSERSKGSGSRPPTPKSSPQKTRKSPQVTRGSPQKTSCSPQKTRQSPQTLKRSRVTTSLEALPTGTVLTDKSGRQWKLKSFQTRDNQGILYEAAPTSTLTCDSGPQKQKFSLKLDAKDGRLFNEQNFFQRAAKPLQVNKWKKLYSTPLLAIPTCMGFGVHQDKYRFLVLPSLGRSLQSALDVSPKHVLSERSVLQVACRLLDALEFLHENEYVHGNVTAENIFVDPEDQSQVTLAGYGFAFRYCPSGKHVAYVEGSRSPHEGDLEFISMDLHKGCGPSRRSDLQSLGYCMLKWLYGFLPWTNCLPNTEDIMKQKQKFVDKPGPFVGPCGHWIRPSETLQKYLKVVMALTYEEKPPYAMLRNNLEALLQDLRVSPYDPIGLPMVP

Row | Structure (SMILES) | ΔTm [°C]
43 | CC(=O)O/N=C1/C(=C2/C(=O)Nc3cc(Br)ccc32)Nc2ccccc21 [6-BROMOINDIRUBIN-3'-ACETOXIME] | 0.7
44 | COc1cc(OC)c(/C=C2\C(=O)Nc3ccccc32)c(OC)c1 | 0.7
45 | CCOc1cc2ncnc(Nc3cccc(Br)c3)c2cc1OCC | 0.1
